Results from patent publication US7632814B2, “HYD1 peptides as anti-cancer agents” (University of South Florida, priority 2006, dated 2009).
Blank lines part the entries; values can stand above or below the substance they belong to. Where no end group is shown, it is not given here. [ ]: non-standard residue; d: D form. 5(6)‑FAM = 5(6)-carboxyfluorescein

Experiments:
β1 integrin = molecular target: T1, β1 integrin (Homo sapiens, UniProt P05556); assay: Binding of peptide to the cell surface
T1 construct: endogenous in cells
Description: Another aspect of the invention concerns a method of identifying modulators of peptide binding (a screen for molecules that displace peptide binding). Agents that are identified as being capable of competing with the HYD1 peptides of the invention for binding to β1 integrin may have utility as cytotoxic agents for research or therapy (e.g., for cancer treatment). The method comprising providing a candidate agent (such as a chemical compound, antibody, nucleic acid, or peptide); and determining whether the agent inhibits (e.g., disrupts, prevents, or interferes with), the ability of a HYD1 peptide of the invention (HYD1 or a fragment or variant thereof) to bind to β1 integrin on a cell surface (e.g., cancer cell surface) and/or inhibit β1 integrin mediated adhesion, in vitro or in vivo (e.g., in an animal model). Preferably, the cell is a cancer cell such as a myeloma cell or a cell of other cancer types (see, for example Table 1). Preferably, the peptide is labeled with a detectable moiety (e.g., a fluorescent tag, such as […]) to facilitate the determining step. Examples of controls that may be utilized in carrying out the screening method include, but are not limited to, unlabeled HYD1 peptides (HYD1, or a fragment or variant thereof); scrambled peptides (such as HYD1S); β1 integrin blocking antibody; and non-specific surface antigen binding antibody (such as CD138 for myeloma cells). Advantageously, using the screening assay, labeled HYD1 or fragments or variants thereof, can be used to screen candidates such as small molecules, on natural product libraries, in a rapid, high-throughput fashion. […] Fluorescence polarization (FP) analysis can be used to screen small molecule or natural product libraries for discovery of novel compounds that mimic the specific binding and potentially the biological activity of HYD1. The FP assay is based on the extent of depolarization of the free versus bond peptide, which can be accurately measured on commercially available FP plate readers. […] In summary, a high throughput screen (HTS) can be used to bind small molecules prior to the addition of an HYD1 probe and molecules of interest can be identified by displacement of bond peptide, with a corresponding increase in unbound peptide by FP analysis. An analogous high-throughput binding assay based on fluorescence polarization, which allows screening for small molecules that bind to the STAT3 SH2 domain, is described in Schust J. and Berg T., Anal Biochem., 2004 Jul. 1; 330(1):114-8. […]

Myeloma cells = assay: Apoptotic activity of HYD1 variants in myeloma cells (cell line not stated); assay type: cell-based
Method: Myeloma cells were plated at a density of 400,000 cells per ml in a 24 well plate. Cells were treated with the indicated dose of the peptide for 24 hours. Following 24 hrs of peptide exposure, apoptotic cells were detected using Annexin V staining and FACS analysis. Ten thousand events were analyzed by flow cytometry (Becton Dickinson, San Jose, Calif.). Experiments were performed in triplicate and repeated twice. Shown is a representative figure.

prostate tumor cell = assay: Cell adhesion supported by immobilized HYD1 fragments and variants; assay type: cell-based; conditions: truncation and alanine substitution of HYD1
Description: Defining the minimal region of HYD1 necessary to potentiate drug-induced apoptosis in suspension and adherent cultures is of interest. Below is a study to determine the minimal HYD1 sequence required to block prostate tumor cell migration. Similar studies as those outlined below and using the same peptide sequences will be used to determine the minimal amino acid sequence required for potentiation of drug induced apoptosis.
To determine the minimal element of immobilized HYD1 required for cell adhesion, the N and C terminus was systematically truncated one amino acid at a time (FIG. 14A). Most of the adhesion activity was retained with the deletion of lys-glycine from the C-terminus. However, the peptide no longer supported cell adhesion if the next residue, tryptophan was removed. Deletion of the N-terminus on the other hand, was tolerated very well until the third residue, methionine, was removed, leading to gradual decrease in cell binding.

H929 cells [1] = assay: Lysosensor staining of acidic vesicles, confocal microscopy; assay type: cell-based; conditions: 100 μg/ml, six hours, compared to control cells
Method: Lysosensor green was used to detect acidic compartments and live cell imaging was performed by confocal microscopy. Shown is a representative figure. The experiment was repeated three independent times and similar results were obtained.
Lysosensor staining. 35 mm glass bottom microwell dishes were incubated with 10 ul Cell-tak (BD biosciences San Jose, Calif.) and 290 ul 0.5M sodium bicarbonate (Sigma) for 30 minutes. The plates were aspirated and 200,000H929 or 8226 cells were plated. Cells were then treated with either water (VC), 100 μg/ml HYD1 or 100 μg/ml HYD1S for 6 hours. After the 6-hour incubation, the plates were aspirated and washed once with warm media. Media containing 1 μM lysosensor DND-189 (Molecular Probes, Carlsbad Calif.) and 20 μM Hoechst 33342 (Molecular Probes) was added and samples were incubated for an additional 30 minutes. Samples were analyzed with a Leica DMI6000 inverted TCS SP5 confocal scanner (Leica Microsystems, Germany). 405 Diode and Argon laser lines were applied to excite the samples and tunable filters were used to minimize the crosstalk between fluorochromes. Gain, offset, and pinhole setting were identical for all samples within the treatment group. Image sections at […] were captured with photomultiplier detectors and maximum projections were prepared with the LAS AF software version 1.6.0 build 1016 (Leica Microsystems, Germany).

H929 cells [2] = assay: Electron microscopy of double membrane vesicles; assay type: cell-based; conditions: 100 μg/ml, 4 hours
Method: H929 cells were treated with either 100 µg/ml HYD1 (FIG. 24A) or HYD1S (FIG. 24B) for four hours and processed for electron microscopy as described in materials and methods.
Electron Microscopy. H929 cells were treated for four hours with either 100 μg/ml HYD1 or HYD1S. After peptide treatment, the samples were fixed overnight in 2.5% glutaraldehyde in 0.1M phosphate buffer, pH 7.2 overnight at four degrees. Following fixation, the cells were rinsed 2 times for 10 minutes each in 0.1M phosphate buffer, pH 7.2, at 4° C. The cells were loosely pelleted in microcentrifuge tubes at 500×G for 3 minutes. The buffer was removed from the cells and replaced with 1% osmium tetroxide in the above buffer at 4° C. The cells were resuspended and post-fixed for 1 hour, then loosely pelleted and rinsed in the above buffer. This step was repeated for a total of 3 rinses of 5 minutes each, with the cells being resuspended after each buffer change. Cells were dehydrated through a graded series of acetone, 30%, 50%, 70%, and 95% acetone in water, 5 minutes per change with loose pelleting at 750×G for 5 minutes, then resuspension for each step. The cells were then dehydrated through three changes of 100% acetone, 10 minutes per change, with a 5 minute pelleting step at 1000×G, followed by resuspension in each step. […]

8226 cells = assay: HS-5 co-culture (SF+A) model of drug resistance, melphalan apoptosis; assay type: cell-based; conditions: 8226 cells co-cultured with HS-5, 50 μg/ml peptide, with melphalan
Method: (§1) Co-culture model. HS-5/GFP cells were plated at a density of 500,000 cells per ml and incubated overnight. Myeloma cells were incubated with vehicle control (water), 50 μg/ml HYD1 or 50 μg/ml HYD1S 30 minutes prior to the addition of myeloma cells (400,000 cell/ml) to either control plates or plates containing HS-5 cells. Myeloma cells were incubated with HS-5 cells for three hours prior to the addition of melphalan. Apoptotic cells were measured in GFP negative myeloma cells, by annexin PE staining and FACS analysis (n=9). ANOVO was performed to determine significance between conditions.
(§2) Briefly, 8226 myeloma cells were pre-incubated with varying concentrations of either HYD1 or the scrambled HYD1S peptide for 30 minutes prior to allowing cells to attach to FN for two hours. Following two hours of cell adhesion, the amount of cells adherent to FN was measured. The next objective was to determine whether treatment of tumor cells with HYD1 results in potentiation of melphalan induced cell death in the BMS co-culture model (SF+A). […] For these studies, the HYD1 and HYD1S were pre-incubated with the […] for 30 minutes, and then cells and culture media containing the peptide were placed into the S-5 culture dish. Myeloma cells were co-cultured for an additional 3 hours with HS-5 cells before the addition of melphalan. Twenty-four hours after drug treatment, apoptosis was measured by Annexin V-PE positive events by FACS analysis. The HS-5 cells constitutively express GFP and thus it is possible to gate GFP negative cells only (myeloma cells) for the apoptotic analysis.

H929 cells [3] = assay: as above; assay type: cell-based; conditions: H929 cells co-cultured with HS-5, 50 μg/ml peptide, with melphalan
Method: as §1, §2

[4] = tested on: phospho Pyk2 in H929 cells; assay: Phospho-Pyk2 levels in suspension culture (immunoblot); assay type: cell-based; conditions: H929 cells cultured in suspension
Description: Based upon the observation that HYD1 increased melphalan induced apoptosis in suspension cultures, whether treatment with HYD1 inhibits phosphorylation of a downstream mediator of β1 integrin signaling (Pyk2) in suspension cultures was investigated.

[5] = tested on: DU145 prostate cancer cells; conditions: DeRoock et al. 2001; cited from earlier work

T1 sequence (P05556 21-798): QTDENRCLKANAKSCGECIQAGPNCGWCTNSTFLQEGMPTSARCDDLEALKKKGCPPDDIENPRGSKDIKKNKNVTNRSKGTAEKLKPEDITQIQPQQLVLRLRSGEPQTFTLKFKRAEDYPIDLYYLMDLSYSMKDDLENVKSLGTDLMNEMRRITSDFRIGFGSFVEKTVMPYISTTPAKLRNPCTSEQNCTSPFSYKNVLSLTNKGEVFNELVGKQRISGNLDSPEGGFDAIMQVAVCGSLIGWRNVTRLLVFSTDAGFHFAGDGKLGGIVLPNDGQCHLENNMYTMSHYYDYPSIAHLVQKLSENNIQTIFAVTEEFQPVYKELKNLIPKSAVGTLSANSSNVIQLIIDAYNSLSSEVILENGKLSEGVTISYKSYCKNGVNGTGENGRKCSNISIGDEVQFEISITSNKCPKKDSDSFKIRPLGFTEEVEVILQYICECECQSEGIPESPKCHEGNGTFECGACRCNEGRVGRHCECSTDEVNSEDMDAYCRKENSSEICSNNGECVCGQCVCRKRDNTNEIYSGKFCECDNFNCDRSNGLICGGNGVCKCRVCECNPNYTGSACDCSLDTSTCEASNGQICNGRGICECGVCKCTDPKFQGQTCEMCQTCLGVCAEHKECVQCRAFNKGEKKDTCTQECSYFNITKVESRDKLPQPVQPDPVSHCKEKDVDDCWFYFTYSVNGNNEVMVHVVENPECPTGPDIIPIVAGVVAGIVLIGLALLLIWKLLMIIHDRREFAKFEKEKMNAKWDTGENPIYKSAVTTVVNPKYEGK

binding to the cell surface (β1 integrin): binds to the cell surface | blocking of cell surface binding by β1 integrin antibody (β1 integrin): can be blocked
Substance: FAM-HYD1: HYD1 with R=5(6)-FAM (carboxyfluorescein) ({5(6)‑FAM}-[dK][dI][dK][dM][dV][dI][dS][dW][dK]G)
biological activity of conjugated HYD1 (Myeloma cells): retains biological activity

Substance: ikmvisw (IKMVISW; HYD1 fragment)
cell adhesion supported by immobilized peptide (prostate tumor cell): retained full cell adhesion activities

Substance: wiksmkivkg ([dW][dI][dK][dS][dM][dK][dI][dV][dK]G) [HYD1S, reference compound]
number and size of acidic vesicles (H929 cells [1]): large vesicles noted with HYD1 treatment in both the lysosensor staining and EM analysis were not detected | formation of double membranes / vesicles (EM) (H929 cells [2]): small vesicles fused with lysosomes were observed | potentiation of melphalan-induced apoptosis in the SF+A model (8226 cells): but not the scrambled peptide (HYD1S) potentiates melphalan-induced cell death | potentiation of melphalan-induced apoptosis in the SF+A model (H929 cells [3]): but not the scrambled peptide (HYD1S) potentiates melphalan-induced cell death | phospho Pyk2 levels [4]: but not HYD1S reduces phospho Pyk2 levels | inhibition of cell adhesion to extracellular matrixes [5]: not to inhibit cell adhesion
